Laboratory results published in patent US20210000782A1, “APPLICATION OF DROFENINE OR SALT THEREOF TO PREPARATION OF MEDICINE FOR TREATING PERIPHERAL NEURON AXONAL INJURY AND PERIPHERAL RELATED NEUROPATHY” (NANJING UNIVERSITY OF CHINESE MEDICINE, priority 2018, published 2021).

Columns and labels:
[1] = test system: STZ-induced type I diabetic mice; assay: Paw withdrawal experiment (Von Frey, 50% mechanical pain threshold), type I diabetic peripheral neuropathy; format: in vivo, C57BL/6J mice; details: n = 6
Procedure: (§1) The experiment was based on that when rodents received a mechanical stimulation at their paws, they generated withdrawal reflex. A Von Frey may provide stimulation force in a range of 0.008 g to 300 g. A magnitude of the stimulation force was determined by a thickness and an extending length of a nylon wire. The nylon wire with a proper thickness was selected according to practical conditions in the experiment. The proper extending length was regulated to realize vertical stimulation on the skin. The magnitude of the stimulation force might be regulated by regulating the extending length and changing the nylon wire until the nylon wire bended. The response of mice on the pain was evaluated on the basis.
(§2) 1) Animal grouped administration condition (type I diabetic mice): C57BL/6J mice were purchased from Beijing Vital River. After adaptive feeding for a week, intraperitoneal injection of STZ (180 mg/kg) was performed. Blood glucose was measured after 4-7 days. Mice with the blood glucose higher than 16 mmol/L were randomly selected. After 6 weeks after the STZ injection, grouping was performed according to body weights and the blood glucose to obtain a control group (non-diabetic mice), a model group (DPN mice), drofenine (10 mg/kg), and drofenine (20 mg/kg). Intraperitoneal injection of drofenine was performed for 4 weeks. The motor nerve conduction velocity, mechanical pain and heat pain were respectively tested in 0th week, 4th week and 8th week after the STZ injection.
(§3) 2) Von Frey tactile measuring suits were purchased from a company, and a plantar test instrument was purchased from UGO company.
(§4) 3) Paw withdrawal Experiment: A nylon wire with a proper thickness was selected. A proper extending length was regulated to realize vertical simulation on the skin. The magnitude of stimulation force might be regulated by regulating the extending length and changing the nylon wire until the nylon wire bended. Each mouse was tested for six times to determine a threshold. A 50% mechanical pain threshold of the mice was calculated according to 50% threshold=(10^ (x^f+kδ))/10000.

[2] = biological target: BChE (Homo sapiens, UniProt P06276); details: background statement; cited from earlier work
BChE, sequence (P06276 29-602, species assumed): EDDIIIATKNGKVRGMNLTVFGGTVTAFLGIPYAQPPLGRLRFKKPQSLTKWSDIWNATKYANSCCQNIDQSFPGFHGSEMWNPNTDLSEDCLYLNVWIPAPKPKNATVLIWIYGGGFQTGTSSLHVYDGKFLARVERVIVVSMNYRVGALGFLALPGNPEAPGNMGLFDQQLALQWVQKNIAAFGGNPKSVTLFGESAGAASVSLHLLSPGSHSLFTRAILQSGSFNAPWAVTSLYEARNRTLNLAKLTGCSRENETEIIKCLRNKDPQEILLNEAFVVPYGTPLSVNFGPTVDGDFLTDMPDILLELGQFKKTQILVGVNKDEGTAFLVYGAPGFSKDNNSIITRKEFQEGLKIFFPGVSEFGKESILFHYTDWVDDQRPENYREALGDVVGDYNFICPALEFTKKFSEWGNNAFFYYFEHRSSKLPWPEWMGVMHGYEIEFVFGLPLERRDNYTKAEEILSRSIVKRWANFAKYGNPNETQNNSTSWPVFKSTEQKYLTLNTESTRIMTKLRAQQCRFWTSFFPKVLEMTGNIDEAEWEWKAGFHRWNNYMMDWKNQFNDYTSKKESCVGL

[3] = test system: STZ-induced type I diabetic mice; assay: Heat pain testing experiment, type I diabetic peripheral neuropathy; format: in vivo, C57BL/6J mice; details: n = 6
Procedure: as §2, §3
(§5) 4) Heat pain testing experiment: An infrared instrument was placed under the sole of the mouse, and kept still. The time was recorded when the paw of the mouse withdrew. This time was heat pain response time of the mouse.

[4] = test system: STZ-induced type I diabetic mice; assay: Motor nerve conduction velocity, type I diabetic peripheral neuropathy; format: in vivo, C57BL/6J mice; details: for Motor nerve conduction velocity: STZ mice, n = 6
Procedure: as §2
(§6) 5) Motor nerve conduction velocity testing experiment: (1) Electrode placement: A stimulation electrode was placed at a nerve trunk, a recording electrode was placed at a muscle belly, a reference electrode was placed at a muscle tendon, and a ground wire was placed between the stimulation electrode and the recording electrode. (2) Motor nerve conduction velocity calculation: Super-strong stimulation was performed on distal and proximal ends of the nerve trunk, 2 compound muscle action potentials might be recorded on muscles dominated by this nerve, and different latency periods thereof were measured. The nerve conduction velocity was obtained by dividing a distance between the distal and proximal ends by a latency period difference between two points. A calculation formula was: Nerve conduction velocity (m/s)=distance between two points (cm)×10/latency period difference between two points.

[5] = test system: DRG primary cells (peripheral sensory neurons); assay: Growth of peripheral sensory neurites, β-tubulin III fluorescent staining; format: cell-based, C57BL6 mouse; details: 24 hours incubation with different concentrations of drofenine, FIG. 1 and FIG. 2
Procedure: The experiment was based on that DPN firstly leads to abnormality of sensory neurons, and the main pathological changes were axonal atrophy and degeneration, or even disappearance. For DRG, as peripheral sensory neurons, its neurite growth state is closely related to a development process of the DPN. The inventor of the present invention added DMSO and different concentrations of drofenine into DRG primary cells for common incubation for a certain time. Then, the growth of the neurites was determined by a β-tubulin III fluorescent staining detection method, and lengths were quantified by ImageJ. The effect of the drofenine on promoting the growth of the peripheral sensory neurites was evaluated on the basis.
1) β-tubulin III for fluorescent staining was purchased from Sigma company. All cell culture reagents were purchased from Gibco company. DRG cells were taken from C57BL6 mouse spines.
2) β-tubulin III staining experiment: DRG cells were inoculated in a 12-hole plate at 100 cells/hole. After the DRG cells were attached to a wall overnight, incubation was performed for 24 hours by different concentrations of drofenine. Then, an original culture medium is removed. 4% of paraformaldehyde was added into each hole for immobilization for 15 min. Permeabilization was performed for 5 min by 0.3% Triton. After PBS washing, room-temperature sealing was performed for 1 h. […]

[6] = test system: db/db type II diabetic mice; assay: Motor nerve conduction velocity, type II diabetic peripheral neuropathy; format: in vivo; details: for Motor nerve conduction velocity: db/db mice, n = 6
Procedure: (§7) 2) Animal grouped administration condition (type II diabetic mice): 16-week-old db/db mice were selected and subjected to adaptive feeding for a week. Grouping was performed according to body weights and blood glucose to obtain a control group, a model group, a drofenine low-dose group (10 mg/kg), and a drofenine medium-dose group (20 mg/kg). Before administration, the motor nerve conduction velocity and a 50% mechanical pain threshold were measured to determine DPN symptoms. Intraperitoneal injection of drofenine was performed for 4 weeks. The mechanical pain, heat pain and motor nerve conduction velocity were tested in each week.
as §6

[7] = test system: db/db type II diabetic mice; assay: Paw withdrawal experiment (Von Frey, 50% mechanical pain threshold), type II diabetic peripheral neuropathy; format: in vivo; details: n = 6
Procedure: as §1, §7, §3, §4

[8] = test system: db/db type II diabetic mice; assay: Heat pain testing experiment, type II diabetic peripheral neuropathy; format: in vivo; details: n = 6
Procedure: as §7, §3, §5

[9] = 10 mg/kg intraperitoneal, administration week 0, mean ± SEM
[10] = 10 mg/kg intraperitoneal, administration week 1, mean ± SEM
[11] = 10 mg/kg intraperitoneal, administration week 2, mean ± SEM
[12] = 10 mg/kg intraperitoneal, administration week 3, mean ± SEM
[13] = 10 mg/kg intraperitoneal, administration week 4, mean ± SEM
[14] = 20 mg/kg intraperitoneal, administration week 0, mean ± SEM
[15] = 20 mg/kg intraperitoneal, administration week 1, mean ± SEM
[16] = 20 mg/kg intraperitoneal, administration week 2, mean ± SEM
[17] = 20 mg/kg intraperitoneal, administration week 3, mean ± SEM
[18] = 20 mg/kg intraperitoneal, administration week 4, mean ± SEM

In the case of `CCN(CC)CCOC(=O)C(c1ccccc1)C1CCCCC1` (stereo not shown) [Drofenine], the “50% paw withdrawal threshold” value [1, 9] is reported as 2.77 ± 0.19 g, the “50% paw withdrawal threshold” value [1, 10] is reported as 2.53 ± 0.25 g and the “50% paw withdrawal threshold” value [1, 11] is reported as 1.31 ± 0.13 g. For the same molecule, the “50% paw withdrawal threshold” value [1, 12] was 1.40 ± 0.13 g, the “50% paw withdrawal threshold” value [1, 13] was 1.45 ± 0.11 g and the “50% paw withdrawal threshold” value [1, 14] was 2.77 ± 0.19 g. For the same molecule, the “50% paw withdrawal threshold” value [1, 15] was 2.06 ± 0.31 g, the “50% paw withdrawal threshold” value [1, 16] was 1.31 ± 0.13 g and the “50% paw withdrawal threshold” value [1, 17] was 1.27 ± 0.12 g. For the same molecule, the “50% paw withdrawal threshold” value [1, 18] was 1.35 ± 0.10 g, the BChE inhibition [2] was “effective BChE competitive inhibitor” and the Heat response [3, 9] was 11.43 ± 0.98 s. It also gave a Heat response [3, 10] of 11.12 ± 0.66 s, a Heat response [3, 11] of 10.28 ± 0.68 s and a Heat response [3, 12] of 8.96 ± 0.26 s. It also gave a Heat response [3, 13] of 8.78 ± 0.26 s, a Heat response [3, 14] of 10.3 ± 0.60 s and a Heat response [3, 15] of 10.77 ± 0.94 s. For the same molecule, the Heat response [3, 16] was 8.64 ± 0.69 s, the Heat response [3, 17] was 7.91 ± 0.54 s and the Heat response [3, 18] was 7.71 ± 0.68 s. The “Motor nerve conduction velocity” value [4, 9] was 39.61 ± 1.06 m/s, the “Motor nerve conduction velocity” value [4, 11] was 40.55 ± 2.14 m/s and the “Motor nerve conduction velocity” value [4, 14] was 40.63 ± 1.03 m/s. For the same molecule, the “Motor nerve conduction velocity” value [4, 16] was 43.82 ± 1.37 m/s, the “motor nerve conduction velocity and sensation loss of the type I diabetic peripheral neuropathy” value ([4]; summary in words of Tables 1-3, STZ mice) was “significantly relieve” and the “growth of the peripheral sensory neurites” value [5] was “promote the growth (quantitative diagram) of the peripheral sensory neurites in a concentration dependent way”. For the same molecule, the “Motor nerve conduction velocity” value [6, 9] was 34.61 ± 1.06 m/s, the “Motor nerve conduction velocity” value [6, 10] was 36.55 ± 2.14 m/s and the “Motor nerve conduction velocity” value [6, 11] was 38.23 ± 3.20 m/s. For the same molecule, the “Motor nerve conduction velocity” value [6, 12] was 39.34 ± 2.89 m/s, the “Motor nerve conduction velocity” value [6, 13] was 40.12 ± 2.87 m/s and the “Motor nerve conduction velocity” value [6, 14] was 35.63 ± 1.03 m/s. The “Motor nerve conduction velocity” value [6, 15] was 38.82 ± 1.37 m/s, the “Motor nerve conduction velocity” value [6, 16] was 40.23 ± 2.02 m/s and the “Motor nerve conduction velocity” value [6, 17] was 41.56 ± 2.35 m/s. The “Motor nerve conduction velocity” value [6, 18] was 42.28 ± 2.26 m/s, the “motor nerve conduction velocity and sensation loss of db/db type II diabetic peripheral neuropathy” value ([6]; summary in words of Tables 4-6, db/db mice) was “significantly relieve” and the “50% paw withdrawal threshold” value [7, 9] was 2.81 ± 0.17 g. For the same molecule, the “50% paw withdrawal threshold” value [7, 10] was 2.82 ± 0.22 g, the “50% paw withdrawal threshold” value [7, 11] was 2.21 ± 0.13 g and the “50% paw withdrawal threshold” value [7, 12] was 2.09 ± 0.34 g. The “50% paw withdrawal threshold” value [7, 13] was 1.98 ± 0.21 g, the “50% paw withdrawal threshold” value [7, 14] was 2.83 ± 0.19 g and the “50% paw withdrawal threshold” value [7, 15] was 2.62 ± 0.26 g. The “50% paw withdrawal threshold” value [7, 16] was 2.01 ± 0.13 g, the “50% paw withdrawal threshold” value [7, 17] was 1.92 ± 0.12 g and the “50% paw withdrawal threshold” value [7, 18] was 1.82 ± 0.01 g. For the same molecule, the Heat response [8, 9] was 10.43 ± 0.98 s, the Heat response [8, 10] was 13.52 ± 0.69 s and the Heat response [8, 11] was 10.58 ± 0.32 s. The Heat response [8, 12] was 8.96 ± 0.56 s, the Heat response [8, 13] was 9.78 ± 0.56 s and the Heat response [8, 14] was 10.39 ± 0.30 s. It also gave a Heat response [8, 15] of 10.77 ± 0.54 s, a Heat response [8, 16] of 8.54 ± 0.79 s and a Heat response [8, 17] of 8.51 ± 0.55 s. The Heat response [8, 18] was 8.01 ± 0.68 s.
